Assay results taken from patent publication US12338264B2, “Crystalline potassium salt of 2-O-α-D-glucosyl-L-ascorbic acid and method for producing the same” (NAGASE VIITA CO., LTD., priority 2019, dated 2025).

Legend:
[1] = pH of 1% by mass aqueous solution; assay type: physicochemical; details: dissolved in deionized water
Procedure: 1% by mass of aqueous solution of the crystal obtained in Experiment 1 was prepared and its pH was measured.
A commercially available particulate composition containing anhydrous crystalline ascorbic acid 2-glucoside (product name “Ascofresh” (registered trademark), commercialized by Hayashibara Co., Ltd., Okayama, Japan) and a hydrous crystalline potassium salt of ascorbic acid 2-glucoside, obtained by the method in the Experiment 1 were made into compositions with the ratios by mass ranging from 100:0 to 0:100 as shown in Table 3. Each of the resulting compositions was dissolved in deionized water to give a concentration of 1% by mass, following by measuring the pHs of the resulting solutions.

[2] = Hygroscopicity: mass increase on storage at 75.2% relative humidity; assay type: physicochemical; details: relative humidity 75.2%; for Increase rate of mass: at room temperature, after storage for 24 hours
Procedure: An experiment was carried out to compare the hygroscopicity of both the hydrous crystalline potassium salt of ascorbic acid 2-glucoside, obtained by the method in the Experiment 1, and the hydrous crystalline sodium salt of ascorbic acid 2-glucoside, obtained by the method described in Patent Literature 10. That is, 0.5 g each of the hydrous crystalline potassium salt of ascorbic acid 2-glucoside and the hydrous crystalline sodium salt of ascorbic acid 2-glucoside were weighted and stored in a desiccator conditioned to 75.2% relative humidity (RH) using saturated salt solution for 24 hours at room temperature. After that, the mass of each was measured, the mass increased by moisture absorption was determined, and the increase rate of mass {(Mass increased by storage)/(Mass at the beginning of storage)×100} (% by mass) was determined.

pH of 1% by mass aqueous solution [1]	Increase rate of mass [2] [% by mass]	Increase rate of mass relative to that of the hydrous crystalline sodium salt of ascorbic acid 2-glucoside ([2]; room temperature, 24 hours)	Compound
12.7	9.1	under 60%	O=C1O[C@H]([C@@H](O)CO)C([O-])=C1O[C@H]1O[C@H](CO)[C@@H](O)[C@H](O)[C@H]1O.[K+] [hydrous crystalline potassium salt of ascorbic acid 2-glucoside]
	15.8		hydrous crystalline sodium salt of ascorbic acid 2-glucoside [reference compound]
2.2			O=C1O[C@H]([C@@H](O)CO)C(O)=C1O[C@H]1O[C@H](CO)[C@@H](O)[C@H](O)[C@H]1O [2-O-α-D-Glucosyl-L-ascorbic acid]
